Entries after “also recorded” stand apart in the source; their conditions may differ.
Tests used:
[1] = molecular target: T1, Human 5-HT1F receptor transfected NIH3T3 cells (Homo sapiens, UniProt P30939); experiment: Inhibition of forskolin stimulated cAMP formation; format: cell-based
T1 construct: expressed in transfected cells; host or cells: NIH3T3 cells
T1 sequence (P30939 1-366): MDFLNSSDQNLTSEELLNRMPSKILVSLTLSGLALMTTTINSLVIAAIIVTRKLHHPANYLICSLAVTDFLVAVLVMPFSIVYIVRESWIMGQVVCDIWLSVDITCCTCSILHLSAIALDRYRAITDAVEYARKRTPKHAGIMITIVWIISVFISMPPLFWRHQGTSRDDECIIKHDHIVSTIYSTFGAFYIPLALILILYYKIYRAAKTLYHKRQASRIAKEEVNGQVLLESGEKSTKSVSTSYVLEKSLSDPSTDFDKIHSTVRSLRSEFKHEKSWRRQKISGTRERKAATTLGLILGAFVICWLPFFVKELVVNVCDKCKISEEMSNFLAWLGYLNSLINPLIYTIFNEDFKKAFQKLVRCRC
Experimental: As was reported by R. L. Weinshank, et al., WO93/14201, the 5-HT1F receptor is functionally coupled to a G-protein as measured by the ability of serotonin and serotonergic drugs to inhibit forskolin stimulated cAMP production in NIH3T3 cells transfected with the 5-HT1F receptor. Adenylate cyclase activity was determined using standard techniques. A maximal effect is achieved by serotonin. An Emax is determined by dividing the inhibition of a test compound by the maximal effect and determining a percent inhibition. N. Adham, et al., supra; R. L. Weinshank, et al., Proceedings of the National Academy of Sciences (USA), 89:3630-3634, 1992; and the references cited therein.
Human 5-HT1F receptor transfected NIH3T3 cells (estimated Bmax from one point competition studies=488 fmol/mg of protein) were incubated in DMEM, 5 mM theophylline, 10 mM HEPES (4-[2-hydroxyethyl]-1-piperazineethanesulfonic acid) and 10 μM pargyline for 20 minutes at 37° C., 5% CO2. Drug dose-effect curves were then conducted by adding 6 different final concentrations of drug, followed immediately by the addition of forskolin (10 μM). Subsequently, the cells were incubated for an additional 10 minutes at 37° C., 5% CO2. The medium was aspirated and the reaction was stopped by the addition of 100 mM HCl. […] Radioactivity was quantified using a Packard COBRA Auto Gamma counter, equipped with data reduction software.

[2] = system: patients with migraine; experiment: Intravenous dose-finding study in acute migraine: tolerability and safety; format: in vivo, human
Experimental: The study used a prospective, randomized, double-blind, placebo-controlled design with group-sequential adaptive-treatment assignment (Olesen J et al., N Engl J Med 2004: 350: 1104-10; Hall D B et al., Contemporary Clinical Trials 2005; 26: 349-63). […] The first cohort was allocated to the 2.5 mg dose level. The dose used in subsequent cohorts depended on the headache response (moderate or severe headache reduced to mild or none at 2 hours) of the previous cohort: if 2 or less of the 4 active-treated patients had responded, the dose was increased, and if 3 or more of the 4 active-treated patients had responded, the dose was reduced. The dose adjustment rules were chosen to identify doses of Compound I with efficacy similar to or better than an oral triptan. […] The occurrence of a drug-related serious adverse event would lead to automatic suspension of the randomization pending a safety review.
Data were entered concurrently into an online electronic data capture system. Patients were discharged from the clinic after 4 h and continued to record migraine symptoms and adverse events until 24 h using a diary card.

[3] = Oral pharmacokinetics (solution and tablet), Study 1 and Study 2; format: in vivo, human
Experimental: Plasma samples were analyzed for Compound I using a validated liquid chromatography with tandem mass spectrometric detection (LC/MS/MS) method. Relative bioavailability of tablet and solution formulations for AUCt, AUC∞, and Cmax were assessed. A linear mixed effects model was fitted to the log-transformed PK parameters (AUCt, AUC∞, and Cmax). Included in the model were treatment, period, and sequence as fixed factors and subjects nested within sequences as a random factor. For the relative bioavailability analysis, the tablet formulation was the test and the solution formulation was the reference. 90% confidence intervals and ratios for the relative mean in-transformed AUCt, AUC∞, and Cmax of the test to reference formulation were calculated.

[4] = system: healthy male and female subjects; experiment: Oral safety and tolerability, Study 1 and Study 2; format: in vivo, human; design: Subjects with Nausea: dose or concentration left out as unconfirmed
[5] = system: other 5-HT1 receptor subtypes (5-HT1A, 5-HT1B, 5-HT1D, 5-HT1E); settings: cited from earlier work
[6] = system: rabbit saphenous vein; settings: concentrations up to 0.1 mM; cited from earlier work
[7] = Study 2 Part 1, 200 mg tablet (N = 28)
[8] = Study 2 Part 1, 200 mg tablet (N = 29)
[9] = Study 2 Part 2, 50 mg tablet (N = 28)
[10] = Study 2 Part 2, 400 mg tablet (N = 28)

CN1CCC(C(=O)c2cccc(NC(=O)c3c(F)cc(F)cc3F)n2)CC1 [Compound I, 2,4,6-trifluoro-N-[6-(1-methyl-piperidin-4-ylcarbonyl)-pyridin-2-yl]-benzamide]
functional activity in cAMP assay [1]: agonist of the 5-HT1F receptor | Patients with adverse event Fatigue ([2]; 2.5 mg iv): 0.0% | Patients with adverse event Feeling of relaxation ([2]; 2.5 mg iv): 0.0% | Patients with adverse event Paresthesia ([2]; 2.5 mg iv): 0.0% | Patients with adverse event Sensation of heaviness ([2]; 2.5 mg iv): 0.0% | Patients with adverse event Feeling of relaxation ([2]; 5 mg iv): 0.0% | Patients with adverse event Paresthesia ([2]; 5 mg iv): 0.0% | Patients with adverse event Sensation of heaviness ([2]; 5 mg iv): 0.0% | Patients with adverse event Feeling of relaxation ([2]; 10 mg iv): 0.0% | Patients with adverse event Fatigue ([2]; 45 mg iv): 0.0% | Patients with adverse event Feeling of relaxation ([2]; 45 mg iv): 0.0% | Patients with adverse event Sensation of heaviness ([2]; 45 mg iv): 0.0% | patients reporting adverse events ([2]; all iv doses 2.5 to 45 mg (placebo 43%)): 65% | tolerability ([2]; doses above 60 mg intravenously over 20 minutes): not well tolerated | serious adverse events or withdrawals ([2]; iv): no serious adverse events or withdrawals due to non-serious adverse events | vital signs, ECG, hematological and clinical chemistry parameters ([2]; iv): No clinically significant changes; also recorded: no clinically significant abnormalities | tolerability ([2]; iv 2.5 to 45 mg over 20 min): generally well tolerated | triptan-like chest symptoms ([2]; iv infusion): No patient reported triptan-like chest symptoms; also recorded: no patient-reported chest symptoms or chest discomfort | Tmax ([3]; both sexes, human, plasma, 50 to 400 mg tablet formulation, oral, read-out: Median tmax): 1.5 to 2.5 h | oral bioavailability ([3]; human, in vivo, po): orally bioavailable | bioavailability ([3]; male, human, plasma, 200 mg oral dose, read-out: relative bioavailability of the tablet to the solution): 100% | dose linearity / proportionality of oral pharmacokinetics ([3]; oral 25 to 400 mg, males and females): dose linearity; also recorded: dose proportionality | oral dose achieving plasma levels previously associated with efficacy by the i.v. route ([3]; solution and tablet): ≥ 50 mg | Subjects with Blurred vision [4, 7]: 0 n | Subjects with Feeling hot [4, 7]: 0 n | Subjects with Palpitations [4, 7]: 0 n | Subjects with Blurred vision [4, 8]: 0 n | Subjects with Diarrhea [4, 8]: 0 n | Subjects with Feeling hot [4, 8]: 0 n | Subjects with Headache [4, 8]: 0 n | Subjects with Palpitations [4, 8]: 0 n | Subjects with Blurred vision [4, 9]: 0 n | Subjects with Diarrhea [4, 9]: 0 n | Subjects with Feeling hot [4, 9]: 0 n | Subjects with Headache [4, 9]: 0 n | Subjects with Diarrhea [4, 10]: 0 n | Subjects with Palpitations [4, 10]: 0 n | Subjects with Nausea ([4]; Study 2 Part 2, tablet (N = 28)): 0 n | fatigue, females ([4]; after the 400 mg oral dose): 50% | fatigue, males ([4]; after the 400 mg oral dose): 21% | tolerability ([4]; all oral doses of solution and tablet): well tolerated | tolerability ([4]; doses above 400 mg administered orally): not well tolerated | affinity higher for 5-HT1F receptors than for other 5-HT1 receptor subtypes [5]: more than 450 fold | constriction of rabbit saphenous vein [6]: did not constrict
